Laboratory results published in patent US9226916B2, “Pyrrolidine derivatives” (HOFFMANN-LA ROCHE INC., priority 2009, dated 2016).
Like-named read-outs stand apart in the source and are kept apart here.

Target: T1, recombinant human NK3 receptor (Homo sapiens, UniProt P29371)
T1 construct: expressed in transfected cells; host or cells: HEK293 cells, transient expression; membranes
T1 sequence (P29371 1-465): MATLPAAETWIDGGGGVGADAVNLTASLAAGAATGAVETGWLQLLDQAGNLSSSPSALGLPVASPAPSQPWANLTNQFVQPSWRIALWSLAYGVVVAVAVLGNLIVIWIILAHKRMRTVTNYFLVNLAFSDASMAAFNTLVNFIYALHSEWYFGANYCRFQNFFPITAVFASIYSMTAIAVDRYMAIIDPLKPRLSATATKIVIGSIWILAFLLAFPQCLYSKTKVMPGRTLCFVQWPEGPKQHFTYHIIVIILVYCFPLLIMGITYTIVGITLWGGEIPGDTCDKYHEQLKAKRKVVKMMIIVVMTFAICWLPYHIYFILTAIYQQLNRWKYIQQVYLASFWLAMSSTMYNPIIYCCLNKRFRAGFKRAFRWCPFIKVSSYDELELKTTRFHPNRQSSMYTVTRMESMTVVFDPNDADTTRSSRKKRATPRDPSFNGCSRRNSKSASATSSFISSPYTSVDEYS
Assay: [3H]SR142801 competition binding assay

[1] = hNK-3 receptor affinity, membranes from HEK293 cells transiently expressing recombinant human NK3 receptor, [3H]SR142801, Cheng-Prussoff, read-out: Data Ki

Ki [1]	Compound	Ki
	CC(C)COC(=O)N(C)[C@@H]1CN(C(=O)C2CCN(C(=O)C3(C)CC3)CC2)C[C@H]1c1ccc(Cl)cc1 [Example 141, {(3S,4R)-4-(4-Chloro-phenyl)-1-[1-(1-methyl-cyclopropanecarbonyl)-piperidine-4-carbonyl]-pyrrolidin-3-yl}-methyl-carbamic acid isobutyl ester]	0.0135 µM
0.0032 µM	CN(C(=O)OC1CCCCC1)[C@@H]1CN(C(=O)C2CCN(c3ccc(C#N)cn3)CC2)C[C@H]1c1ccc(Cl)cc1 [Example 143, [(3S,4R)-4-(4-Chloro-phenyl)-1-(5′-cyano-3,4,5,6-tetrahydro-2H-[1,2′]bipyridinyl-4-carbonyl)-pyrrolidin-3-yl]-methyl-carbamic acid cyclohexyl ester]	
0.0211 µM	CN(C(=O)OCCC(F)(F)F)[C@@H]1CN(C(=O)C2CCN(c3ccc(C#N)cn3)CC2)C[C@H]1c1ccc(Cl)cc1 [Example 144, [(3S,4R)-4-(4-Chloro-phenyl)-1-(5′-cyano-3,4,5,6-tetrahydro-2H-[1,2′]bipyridinyl-4-carbonyl)-pyrrolidin-3-yl]-methyl-carbamic acid 3,3,3-trifluoro-propyl ester]	
0.0569 µM	CN(C(=O)OCCC(F)(F)F)[C@H]1CN(C(=O)C2CCN(c3ccc(C#N)cn3)CC2)C[C@@H]1c1ccc(Cl)cc1 [Example 145, [(3R,4S)-4-(4-Chloro-phenyl)-1-(5′-cyano-3,4,5,6-tetrahydro-2H-[1,2′]bipyridinyl-4-carbonyl)-pyrrolidin-3-yl]-methyl-carbamic acid 3,3,3-trifluoro-propyl ester]	
	CN(C(=O)Oc1ccc(F)cc1)[C@@H]1CN(C(=O)C2CCOC(C)(C)C2)C[C@H]1c1ccc(Cl)cc1 (stereo partly drawn) [Example 146, [(3S,4R)-4-(4-Chloro-phenyl)-1-(2,2-dimethyl-tetrahydro-pyran-4-carbonyl)-pyrrolidin-3-yl]-methyl-carbamic acid 4-fluoro-phenyl ester]	0.0068 µM
	CN(C(=O)Oc1ccc(F)cc1)[C@@H]1CN(C(=O)C2CCCOC2)C[C@H]1c1ccc(Cl)cc1 (stereo partly drawn) [Example 147, [(3S,4R)-4-(4-Chloro-phenyl)-1-(tetrahydro-pyran-3-carbonyl)-pyrrolidin-3-yl]-methyl-carbamic acid 4-fluoro-phenyl ester]	0.0737 µM
	COC1CC(C(=O)N2C[C@@H](N(C)C(=O)Oc3ccc(F)cc3)[C@H](c3ccc(Cl)cc3)C2)C1 (stereo partly drawn) [Example 149, [(3S,4R)-4-(4-Chloro-phenyl)-1-(3-methoxy-cyclobutanecarbonyl)-pyrrolidin-3-yl]-methyl-carbamic acid 4-fluoro-phenyl ester]	0.0908 µM
	CN(C(=O)Oc1ccc(F)cc1)[C@@H]1CN(C(=O)C2CCN(C3CC3)CC2)C[C@H]1c1ccc(Cl)cc1 [Example 150, [(3S,4R)-4-(4-Chloro-phenyl)-1-(1-cyclopropyl-piperidine-4-carbonyl)-pyrrolidin-3-yl]-methyl-carbamic acid 4-fluoro-phenyl ester]	0.0156 µM
	CN(C(=O)Oc1ccc(F)cc1)[C@@H]1CN(C(=O)C2CCN(C(=O)OC(C)(C)C)C2)C[C@H]1c1ccc(Cl)cc1 (stereo partly drawn) [Example 151, 3-{(3R,4S)-3-(4-Chloro-phenyl)-4-[(4-fluoro-phenoxycarbonyl)-methyl-amino]-pyrrolidine-1-carbonyl}-pyrrolidine-1-carboxylic acid tert-butyl ester]	0.0182 µM
0.0147 µM	CN(C(=O)OC1CCCCC1)[C@@H]1CN(C(=O)C2CCN(C(=O)C3(C)CC3)CC2)C[C@H]1c1ccc(Cl)cc1 [Example 152, {(3S,4R)-4-(4-Chloro-phenyl)-1-[1-(1-methyl-cyclopropanecarbonyl)-piperidine-4-carbonyl]-pyrrolidin-3-yl}-methyl-carbamic acid cyclohexyl ester]	
0.0192 µM	CC(OC(=O)N(C)[C@@H]1CN(C(=O)C2CCN(c3ccc(C#N)cn3)CC2)C[C@H]1c1ccc(Cl)cc1)C1CC1 (stereo partly drawn) [Example 153, [(3S,4R)-4-(4-Chloro-phenyl)-1-(5′-cyano-3,4,5,6-tetrahydro-2H-[1,2′]bipyridinyl-4-carbonyl)-pyrrolidin-3-yl]-methyl-carbamic acid 1-cyclopropyl-ethyl ester]	
0.0183 µM	CN(C(=O)OC1CCOCC1)[C@@H]1CN(C(=O)C2CCN(c3ccc(C#N)cn3)CC2)C[C@H]1c1ccc(Cl)cc1 [Example 156, [(3S,4R)-4-(4-Chloro-phenyl)-1-(5′-cyano-3,4,5,6-tetrahydro-2H-[1,2′]bipyridinyl-4-carbonyl)-pyrrolidin-3-yl]-methyl-carbamic acid tetrahydro-pyran-4-yl ester]	
	CCC(C)OC(=O)N(C)[C@@H]1CN(C(=O)C2CCN(c3ccc(C#N)cn3)CC2)C[C@H]1c1ccc(Cl)cc1 (stereo partly drawn) [Example 157, [(3S,4R)-4-(4-Chloro-phenyl)-1-(5′-cyano-3,4,5,6-tetrahydro-2H-[1,2′]bipyridinyl-4-carbonyl)-pyrrolidin-3-yl]-methyl-carbamic acid sec-butyl ester]	0.0271 µM
0.0125 µM	CN(C(=O)OCC(F)(F)F)[C@@H]1CN(C(=O)C2CCN(c3ccc(C#N)cn3)CC2)C[C@H]1c1ccc(Cl)cc1 [Example 158, [(3S,4R)-4-(4-Chloro-phenyl)-1-(5′-cyano-3,4,5,6-tetrahydro-2H-[1,2′]bipyridinyl-4-carbonyl)-pyrrolidin-3-yl]-methyl-carbamic acid 2,2,2-trifluoro-ethyl ester]	
0.0004 µM	CN(C(=O)O[C@H]1CC[C@H](C(F)(F)F)CC1)[C@@H]1CN(C(=O)C2CCN(c3ccc(C#N)cn3)CC2)C[C@H]1c1ccc(Cl)c(Cl)c1 [Example 159, [(3S,4R)-1-(5′-Cyano-3,4,5,6-tetrahydro-2H-[1,2′]bipyridinyl-4-carbonyl)-4-(3,4-dichloro-phenyl)-pyrrolidin-3-yl]-methyl-carbamic acid 4-trifluoromethyl-cyclohexyl ester]	
	Cc1ccc(N2CCC(C(=O)N3C[C@@H](N(C)C(=O)O[C@H]4CC[C@H](C(F)(F)F)CC4)[C@H](c4ccc(Cl)c(Cl)c4)C3)CC2)nn1 [Example 160, {(3S,4R)-4-(3,4-Dichloro-phenyl)-1-[1-(6-methyl-pyridazin-3-yl)-piperidine-4-carbonyl]-pyrrolidin-3-yl}-methyl-carbamic acid 4-trifluoromethyl-cyclohexyl ester]	0.0005 µM
	CN(C(=O)O[C@H]1CC[C@H](C(F)(F)F)CC1)[C@@H]1CN(C(=O)C2CCOCC2)C[C@H]1c1ccc(Cl)c(Cl)c1 [Example 161, [(3S,4R)-4-(3,4-Dichloro-phenyl)-1-(tetrahydro-pyran-4-carbonyl)-pyrrolidin-3-yl]-methyl-carbamic acid 4-trifluoromethyl-cyclohexyl ester]	0.0074 µM
0.0814 µM	CN(C(=O)OCC(F)(F)F)[C@@H]1CN(C(=O)C2CCN(C(=O)C3(C)CC3)CC2)C[C@H]1c1ccc(Cl)cc1 [Example 164, {(3S,4R)-4-(4-Chloro-phenyl)-1-[1-(1-methyl-cyclopropanecarbonyl)-piperidine-4-carbonyl]-pyrrolidin-3-yl}-methyl-carbamic acid 2,2,2-trifluoro ethyl ester]	
0.0364 µM	CC(OC(=O)N(C)[C@@H]1CN(C(=O)C2CCN(c3ccc(C#N)cn3)CC2)C[C@H]1c1ccc(Cl)cc1)C(F)(F)F (stereo partly drawn) [Example 166, [(3S,4R)-4-(4-Chloro-phenyl)-1-(5′-cyano-3,4,5,6-tetrahydro-2H-[1,2′]bipyridinyl-4-carbonyl)-pyrrolidin-3-yl]-methyl-carbamic acid 2,2,2-trifluoro-1-methyl-ethyl ester]	
	Cc1ccnc(N2CCC(C(=O)N3C[C@@H](N(C)C(=O)Oc4ccc(F)cc4)[C@H](c4ccc(Cl)cc4)C3)CC2)n1 [Example 167, {(3S,4R)-4-(4-Chloro-phenyl)-1-[1-(4-methyl-pyrimidin-2-yl)-piperidine-4-carbonyl]-pyrrolidin-3-yl}-methyl-carbamic acid 4-fluoro-phenyl ester]	0.0049 µM
	CN(C(=O)Oc1ccc(F)cc1)[C@@H]1CN(C(=O)C2CCNC2)C[C@H]1c1ccc(Cl)cc1 (stereo partly drawn) [Example 168, [(3S,4R)-4-(4-Chloro-phenyl)-1-(pyrrolidine-3-carbonyl)-pyrrolidin-3-yl]-methyl-carbamic acid 4-fluoro-phenyl ester]	0.0984 µM
	CN(C(=O)Oc1ccc(F)cc1)[C@@H]1CN(C(=O)C2CCN(c3ncc(F)cn3)CC2)C[C@H]1c1ccc(Cl)cc1 [Example 169, {(3S,4R)-4-(4-Chloro-phenyl)-1-[1-(5-fluoro-pyrimidin-2-yl)-piperidine-4-carbonyl]-pyrrolidin-3-yl}-methyl-carbamic acid 4-fluoro-phenyl ester]	0.0041 µM
	CCC(=O)N1CCC(C(=O)N2C[C@@H](N(C)C(=O)Oc3ccc(F)cc3)[C@H](c3ccc(Cl)cc3)C2)C1 (stereo partly drawn) [Example 170, [(3S,4R)-4-(4-Chloro-phenyl)-1-(1-propionyl-pyrrolidine-3-carbonyl)-pyrrolidin-3-yl]-methyl-carbamic acid 4-fluoro-phenyl ester]	0.0083 µM
	CN(C(=O)Oc1ccc(F)cc1)[C@@H]1CN(C(=O)C2CCN(C(=O)C3CC3)C2)C[C@H]1c1ccc(Cl)cc1 (stereo partly drawn) [Example 171, [(3S,4R)-4-(4-Chloro-phenyl)-1-(1-cyclopropanecarbonyl-pyrrolidine-3-carbonyl)-pyrrolidin-3-yl]-methyl-carbamic acid 4-fluoro-phenyl ester]	0.0095 µM
